Assay results reported in patent US20180340001A1, “Probes for 18F Positron Emission Tomography Imaging” (The Texas A&M University System, priority 2017, published 2018).

What was measured:
[1] = pH 7.5
[2] = MicroPET/CT imaging, in vivo stability in nude mice; conditions: for free [18F]-fluoride signal / release in vivo: murine model, up to 3 hours post-injection
Procedure: (§1) The stability of [^18F]-1 was first investigated in phosphate buffer solution (1×PBS). […] The stability of [^18F]-1 was further evaluated in a murine model. The probe [^18F]-1 (0.1 mCi) was injected into female nude mice and static microPET scans were obtained at 3 hours after the injection.
MicroPET imaging were acquired at 3 h post injection. For PET image acquiring, a female nude mouse was injected with 0.1 mCi of [^18F]-1 via the tail vein. At 3 hour post injection, the mouse was anesthetized using isoflurane (2% in oxygen), then placed into imaging chambers equipped with a heated coil to maintain body temperature and gas anesthesia. The static microPET acquisitions were then achieved and reconstructed for analysis.

[3] = In vitro stability of [18F]-1 in 1×PBS by radio-HPLC; assay type: physicochemical; conditions: incubation time 3 hours
Procedure: as §1
After HPLC purification, [^18F]-1 was re-injected into HPLC for a radio profile standard. Then, the probe was added with 10×PBS to reconstruct the solution to IX PBS and 0.1 N NaOH to adjust pH to 7, respectively. After 1 hour and 3 hours incubation, a fraction of [^18F]-1 was injected into HPLC. The radio purity was calculated based on the integration of the product peak and other minor peaks.

Row | SMILES | free fluoride signal / release of free fluoride [1] | hydrolytic stability (in words) [1] | free [18F]-fluoride signal / release in vivo ([2]; listed as IMe-PF5) | pseudo-first order rate constant (kobs) of hydrolysis [1] [min⁻¹] | radiochemical purity after incubation [3] [%] | localization in microPET/CT images ([2]; female nude mice, 0.1 mCi via tail vein, static scan 3 h after injection) | bone uptake ([2]; female nude mice, 0.1 mCi, 3 h post-injection) | route of clearance ([2]; female nude mice, 0.1 mCi, microPET/CT 3 h after injection) | free [18F]-fluoride signal / release in vivo [2] | free [18F]-fluoride signal / release in vivo ([2]; listed as 18F—PFS-carbene)
1 | Cn1cc[n+](C)c1[P-](F)(F)(F)(F)F [Compound 1, IMe-PF5] | not observed | highly water stable | not observed | – | – | – | – | – | – | –
2 | Cn1cc[n+](C)c1[P-](F)(F)(F)(F)c1ccccc1 [Compound 2, (NHC)PF4Ph] | – | highly water stable | – | 2.3e-05 | – | – | – | – | – | –
3 | Cn1cc[n+](C)c1[P-](F)(F)(F)(F)F [[^18F]-1] | – | – | – | – | > 98 | obvious localization in the bladder | No bone uptake was observed | cleared through the urinary track | insignificant | not observed
